# Values of other authors as cited in US20260265370A1, “COMBINATION THERAPIES INVOLVING CLAUDIN 18.2 ANTAGONISTS FOR TREATMENT OF CANCER” (SUZHOU TRANSCENTA THERAPEUTICS CO., LTD., priority 2023, published 2026).
# Read-outs that look alike come from different tables or passages of the source.
# Tests used:
# [1] = tested on: unresectable advanced or recurrent gastric cancer; conditions: cited from earlier work
# [2] = tested on: CLDN18.2+/HER2− locally advanced or metastatic gastric or gastroesophageal junction (mG/GEJ) adenocarcinoma; conditions: cited from earlier work; for ORR: patients with measurable disease
# advanced GC/GEJ cancer = conditions: cited from earlier work
# [3] = CLDN18.2 ≥75% tumor cell staining 2+ or 3+
# [4] = zolbetuximab+CAPOX vs PBO+CAPOX
substance,measurement,setting,value
Nivolumab: PD-1 checkpoint inhibitor,ORR,[1]; in vivo,11%
same,12-month OS rate,[1]; n=330,26.2%
same,overall survival (OS),[1]; progressed after two or more chemotherapy regimens,5.26 months
same,HR of OS,[1]; vs placebo,0.63
Zolbetuximab + CAPOX: GLOW arm: zolbetuximab plus capecitabine and oxaliplatin,mDoR,[2]; [3],6.28 months
same,mPFS,[2]; [3],8.21 months
same,ORR,[2]; [3],53.8%
same,ORR,"[2]; CLDN18.2 ≥75% tumor cell staining 2+ or 3+, listed as Zolbetuximab+CAPOX",53.8%
same,ORR,"[2]; CLDN18.2 ≥75% tumor cell staining 2+ or 3+, listed as zolbetuximab+CAPOX",53.8%
same,OS median,[2]; in vivo,14.39 mo
same,TEAE decreased appetite,[2]; in vivo,41.3%
same,TEAE nausea,[2]; in vivo,68.5%
same,TEAE vomiting,[2]; in vivo,66.1%
same,drug-related TEAEs leading to death,[2]; in vivo,2.4%
same,grade ≥3 TEAEs,[2]; in vivo,72.8%
same,serious TEAEs,[2]; in vivo,47.2%
same,HR of OS,[2]; [4],0.771
same,HR of PFS,[2]; [4],0.687
"Zolbetuximab: first-in-class, chimeric monoclonal antibody specific to a CLDN18.2 epitope",tolerability,advanced GC/GEJ cancer; in vivo,well-tolerated
same,ORR,"advanced GC/GEJ cancer; phase IIa monotherapy, strong CLDN18.2 expression, ≥2+ staining intensity in 70% of tumor cells",14%
